Patent US20110002987A1, “Nicorandil Carriers with Enhanced Stability” (RIVOPHARM SA, priority 2008, published 2011)

Experiment: Stability tests of nicorandil tablets in alu/alu blister with desiccant system
Format: physicochemical
Conditions: stored in combination with molecular sieve instead of silica gel desiccant, 6 months
Protocol: Two batches of Nicorandil tablets, 10 mg (batch 043/07) and 20 mg (batch 044/07) respectively, were prepared and packed according to the invention, in alu/alu blister together with a desiccant system.
Silica gel and molecular sieves were compared as desiccant systems and among molecular sieves, systems with different capacity of water absorption were considered.
043/07A: silica gel system
043/07B: 1 lozenge of desiccant plastic composition (Molecular Sieve 4A as provided by CSP technologies), containing molecular sieve 4 Å, a base polymer of polypropylene and an elastomer (moisture absorbed in mg: about 64)
043/07C: 5 lozenges of desiccant plastic composition (Molecular Sieve 4A as provided by CSP technologies), containing molecular sieve 4 Å, a base polymer of polypropylene and an elastomer (moisture absorbed in mg: about 320)
The blisters were placed on stability at the following conditions for 6 months:
25±2° C./60±5% relative humidity (RH)
Nicorandil is particularly sensitive to humidity. Two impurities (named rrt0.14 and rrt0.25) are generated when the product is exposed to moisture and therefore were monitored during stability.

- stability of nicorandil: more stable
- stability of nicorandil (listed as nicorandil): improved stability
Compound: O=C(NCCO[N+](=O)[O-])c1cccnc1 [Nicorandil]
